molecular target: recombinant, human, C-terminally-His tagged NAMPT (Homo sapiens, UniProt P43490); test: Time-Resolved Fluorescence Resonance Energy Transfer (TR-FRET) binding assay of NAMPT; details: 6.8 nM NAMPT, 200 nM probe (Oregon Green 488-conjugated APO866), 1 nM Tb-anti-His antibody, 2-3 hours
Experimental: Determination of the utility of compounds having Formula (I) as binders to and inhibitors of NAMPT was performed using a Time-Resolved Fluorescence Resonance Energy Transfer (TR-FRET) binding assay.
Time-Resolved Fluorescence Resonance Energy Transfer (TR-FRET) Binding Assay of NAMPT
The assay was carried out in 18 uL low volume plates (Owens Corning) in reaction buffer (50 mM HEPES (NaOH), pH 7.5, 100 mM NaCl, 10 mM MgCl2, 1 mM DTT, 1% Glycerol) using 6.8 nM recombinant, human, C-terminally-His tagged NAMPT, 1 nM Tb-anti-His antibody (Invitrogen, Cat # PV5895), and 200 nM probe (Oregon Green 488-conjugated APO866; A-1251667.0). Plates were covered, and reactions were carried out for 2-3 hours. Plates were read with Envision (Laser Lantha low volume protocol) after 2 to 3 hours. Excitation was carried out at 337 nm, and the ratio of emission of Oregon Green (520 nm) to terbium (492 nm) was determined and used to calculate IC50 values of test compounds.

recombinant, human, C-terminally-His tagged NAMPT, sequence (P43490 whole entry): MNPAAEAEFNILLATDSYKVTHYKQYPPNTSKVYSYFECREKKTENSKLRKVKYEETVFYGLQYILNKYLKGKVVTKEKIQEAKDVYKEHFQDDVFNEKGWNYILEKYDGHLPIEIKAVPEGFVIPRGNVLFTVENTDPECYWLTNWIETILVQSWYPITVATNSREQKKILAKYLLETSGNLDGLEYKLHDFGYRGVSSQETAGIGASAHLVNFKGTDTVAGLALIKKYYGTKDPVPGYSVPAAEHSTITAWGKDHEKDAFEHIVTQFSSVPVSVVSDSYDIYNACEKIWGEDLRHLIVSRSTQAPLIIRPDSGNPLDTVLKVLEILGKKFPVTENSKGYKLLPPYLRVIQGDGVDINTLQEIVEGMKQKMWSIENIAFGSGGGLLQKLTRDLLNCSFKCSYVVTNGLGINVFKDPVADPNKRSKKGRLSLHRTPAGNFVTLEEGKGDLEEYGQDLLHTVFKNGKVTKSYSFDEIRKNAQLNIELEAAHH

Structure (SMILES) | IC50 [nM]
O=C(COCc1ccccc1)Nc1ccc(NC(=O)N2CCc3ccccc3C2)cc1 [Example 63, N-(4-{[(benzyloxy)acetyl]amino}phenyl)-3,4-dihydroisoquinoline-2(1H)-carboxamide] | 10.7
CC(=O)N1CCC(C(=O)Nc2ccc(NC(=O)N3CCc4ccccc4C3)cc2)CC1 [Example 65, N-(4-{[(1-acetylpiperidin-4-yl)carbonyl]amino}phenyl)-3,4-dihydroisoquinoline-2(1H)-carboxamide] | 116
O=C(CCS(=O)(=O)c1ccccc1)Nc1ccc(NC(=O)N2CCc3ccccc3C2)cc1 [Example 67, N-(4-{[3-(phenylsulfonyl)propanoyl]amino}phenyl)-3,4-dihydroisoquinoline-2(1H)-carboxamide] | 16.7
CCC(C)(C)C(=O)Nc1ccc(NC(=O)N2CCc3ccccc3C2)cc1 [Example 70, N-{4-[(2,2-dimethylbutanoyl)amino]phenyl}-3,4-dihydroisoquinoline-2(1H)-carboxamide] | 109
CC(C)(C)CC(=O)Nc1ccc(NC(=O)N2CCc3ccccc3C2)cc1 [Example 71, N-{4-[(3,3-dimethylbutanoyl)amino]phenyl}-3,4-dihydroisoquinoline-2(1H)-carboxamide] | 2.75
O=C(CCC(F)(F)F)Nc1ccc(NC(=O)N2CCc3ccccc3C2)cc1 [Example 73, N-{4-[(4,4,4-trifluorobutanoyl)amino]phenyl}-3,4-dihydroisoquinoline-2(1H)-carboxamide] | 33.2
CSCCC(=O)Nc1ccc(NC(=O)N2CCc3ccccc3C2)cc1 [Example 76, N-(4-{[3-(methylthio)propanoyl]amino}phenyl)-3,4-dihydroisoquinoline-2(1H)-carboxamide] | 14.8
O=C(CC1CCCC1)Nc1ccc(NC(=O)N2CCc3ccccc3C2)cc1 [Example 77, N-{4-[(cyclopentylacetyl)amino]phenyl}-3,4-dihydroisoquinoline-2(1H)-carboxamide] | 5.16
O=C(Nc1ccc(NC(=O)N2CCc3ccccc3C2)cc1)C1CCCCC1 [Example 78, N-{4-[(cyclohexylcarbonyl)amino]phenyl}-3,4-dihydroisoquinoline-2(1H)-carboxamide] | 66.3
O=C(CC1CCCCC1)Nc1ccc(NC(=O)N2CCc3ccccc3C2)cc1 [Example 79, N-{4-[(cyclohexylacetyl)amino]phenyl}-3,4-dihydroisoquinoline-2(1H)-carboxamide] | 5.3
O=C(Nc1ccc(NC(=O)N2CCc3ccccc3C2)cc1)c1ccccc1 [Example 80, N-[4-(benzoylamino)phenyl]-3,4-dihydroisoquinoline-2(1H)-carboxamide] | 191
O=C(Nc1ccc(NC(=O)N2CCc3ccccc3C2)cc1)c1ccoc1 [Example 83, N-[4-(3-furoylamino)phenyl]-3,4-dihydroisoquinoline-2(1H)-carboxamide] | 269
Cc1cc(C(=O)Nc2ccc(NC(=O)N3CCc4ccccc4C3)cc2)c(C)o1 [Example 84, N-{4-[(2,5-dimethyl-3-furoyl)amino]phenyl}-3,4-dihydroisoquinoline-2(1H)-carboxamide] | 85.8
O=C(Nc1ccc(NC(=O)N2CCc3ccccc3C2)cc1)c1ccsc1 [Example 85, N-{4-[(3-thienylcarbonyl)amino]phenyl}-3,4-dihydroisoquinoline-2(1H)-carboxamide] | 242
O=C(Nc1ccc(NC(=O)N2CCc3ccccc3C2)cc1)c1ccn[nH]1 [Example 88, N-{4-[(1H-pyrazol-5-ylcarbonyl)amino]phenyl}-3,4-dihydroisoquinoline-2(1H)-carboxamide] | 134
O=C(Nc1ccc(NC(=O)N2CCc3ccccc3C2)cc1)c1cn[nH]c1 [Example 89, N-{4-[(1H-pyrazol-4-ylcarbonyl)amino]phenyl}-3,4-dihydroisoquinoline-2(1H)-carboxamide] | 203
O=C(CN1CCOCC1)Nc1ccc(NC(=O)N2CCc3ccccc3C2)cc1 [Example 94, N-{4-[(morpholin-4-ylacetyl)amino]phenyl}-3,4-dihydroisoquinoline-2(1H)-carboxamide] | 69.2
O=C(CCN1CCOCC1)Nc1ccc(NC(=O)N2CCc3ccccc3C2)cc1 [Example 95, N-(4-{[3-(morpholin-4-yl)propanoyl]amino}phenyl)-3,4-dihydroisoquinoline-2(1H)-carboxamide] | 158
CN1CCN(CCC(=O)Nc2ccc(NC(=O)N3CCc4ccccc4C3)cc2)CC1 [Example 96, N-(4-{[3-(4-methylpiperazin-1-yl)propanoyl]amino}phenyl)-3,4-dihydroisoquinoline-2(1H)-carboxamide] | 128
O=C(Nc1ccc(C(F)(F)F)cc1)N1CCc2ccccc2C1 [Example 97, N-[4-(trifluoromethyl)phenyl]-3,4-dihydroisoquinoline-2(1H)-carboxamide] | 1490
CS(=O)(=O)Nc1cccc2c1CCN(C(=O)Nc1ccc(NC(=O)CC3CCCC3)cc1)C2 [Example 98, N-{4-[(cyclopentylacetyl)amino]phenyl}-5-[(methylsulfonyl)amino]-3,4-dihydroisoquinoline-2(1H)-carboxamide] | 3

Results, then the compound that gave them:

IC50 [nM] | Structure (SMILES)
55 | COC1CCC(C(=O)Nc2ccc(NC(=O)N3CCc4ccccc4C3)cc2)CC1 (centres unmarked) [Example 64, N-(4-{[(4-methoxycyclohexyl)carbonyl]amino}phenyl)-3,4-dihydroisoquinoline-2(1H)-carboxamide]
15.3 | O=C(CCC(=O)c1cccs1)Nc1ccc(NC(=O)N2CCc3ccccc3C2)cc1 [Example 66, N-(4-{[4-oxo-4-(2-thienyl)butanoyl]amino}phenyl)-3,4-dihydroisoquinoline-2(1H)-carboxamide]
16.8 | CCCCCCC(=O)Nc1ccc(NC(=O)N2CCc3ccccc3C2)cc1 [Example 72, N-[4-(heptanoylamino)phenyl]-3,4-dihydroisoquinoline-2(1H)-carboxamide]
86.2 | COCCOCC(=O)Nc1ccc(NC(=O)N2CCc3ccccc3C2)cc1 [Example 74, N-(4-{[(2-methoxyethoxy)acetyl]amino}phenyl)-3,4-dihydroisoquinoline-2(1H)-carboxamide]
49 | Nc1ccc(CCC(=O)Nc2ccc(NC(=O)N3CCc4ccccc4C3)cc2)cc1 [Example 82, N-(4-{[3-(4-aminophenyl)propanoyl]amino}phenyl)-3,4-dihydroisoquinoline-2(1H)-carboxamide]
377 | O=C(Nc1ccc(NC(=O)N2CCc3ccccc3C2)cc1)c1ccc[nH]1 [Example 86, N-{4-[(1H-pyrrol-2-ylcarbonyl)amino]phenyl}-3,4-dihydroisoquinoline-2(1H)-carboxamide]
116 | O=C(Nc1ccc(NC(=O)N2CCc3ccccc3C2)cc1)c1cncs1 [Example 87, N-{4-[(1,3-thiazol-5-ylcarbonyl)amino]phenyl}-3,4-dihydroisoquinoline-2(1H)-carboxamide]
314 | O=C(Nc1ccc(NC(=O)N2CCc3ccccc3C2)cc1)c1ccno1 [Example 90, N-{4-[(1,2-oxazol-5-ylcarbonyl)amino]phenyl}-3,4-dihydroisoquinoline-2(1H)-carboxamide]
16 | O=C(Cc1ccccn1)Nc1ccc(NC(=O)N2CCc3ccccc3C2)cc1 [Example 91, N-{4-[(pyridin-2-ylacetyl)amino]phenyl}-3,4-dihydroisoquinoline-2(1H)-carboxamide]
5840 | CN(C)CCC(=O)Nc1ccc(NC(=O)N2CCc3ccccc3C2)cc1 [Example 92, N-{4-[(N,N-dimethyl-beta-alanyl)amino]phenyl}-3,4-dihydroisoquinoline-2(1H)-carboxamide]
530 | O=C(CCN1CCCCC1)Nc1ccc(NC(=O)N2CCc3ccccc3C2)cc1 [Example 93, N-(4-{[3-(piperidin-1-yl)propanoyl]amino}phenyl)-3,4-dihydroisoquinoline-2(1H)-carboxamide]

Source: US20120122924A1, “NAMPT INHIBITORS” (ABBOTT LABORATORIES, priority 2010, published 2012)
